From the kinase profiling compilation of Christmann-Franck et al. (2016)

Legend:
Experiment in all cases: radiometric filter-binding kinase assay, Kinase HotSpot
Conditions in all cases: compound 0.5 µM; ATP 10 µM
MST4 (human) = MST4 (human) (UniProt Q9P289)
FER (human) = FER (human) (UniProt P16591)
SRC (human) = SRC (human) (UniProt P12931)
PDGFRB (human) = PDGFRB (human) (UniProt P09619)
GRK7 (human) = GRK7 (human) (UniProt Q8WTQ7)
RPS6KA5 KD2 (human) = RPS6KA5 KD2 (human) (UniProt O75582)
RPS6KA4 KD2 (human) = RPS6KA4 KD2 (human) (UniProt O75676)
CDK6 CCND1 (human) = CDK6 CCND1 (human) (UniProt Q00534+P24385)
MAPKAPK3 (human) = MAPKAPK3 (human) (UniProt Q16644)
CLK3 (human) = CLK3 (human) (UniProt P49761)
LIMK1 (human) = LIMK1 (human) (UniProt P53667)
PRKCZ (human) = PRKCZ (human) (UniProt Q05513)
ACVR1 (human) = ACVR1 (human) (UniProt Q04771)
MAP3K7 TAB1 (human) = MAP3K7 TAB1 (human) (UniProt O43318+Q15750)
CDC42BPB (human) = CDC42BPB (human) (UniProt Q9Y5S2)
TYRO3 (human) = TYRO3 (human) (UniProt Q06418)
TTK (human) = TTK (human) (UniProt P33981)
CDK4 CCND3 (human) = CDK4 CCND3 (human) (UniProt P30281+P11802)
CDK4 CCND1 (human) = CDK4 CCND1 (human) (UniProt P24385+P11802)
PLK3 (human) = PLK3 (human) (UniProt Q9H4B4)
WNK2 (human) = WNK2 (human) (UniProt Q9Y3S1)
PKN2 (human) = PKN2 (human) (UniProt Q16513)
DDR2 (human) = DDR2 (human) (UniProt Q16832)
MAPK13 (human) = MAPK13 (human) (UniProt O15264)
LRRK2 (human) = LRRK2 (human) (UniProt Q5S007)
TSSK2 (human) = TSSK2 (human) (UniProt Q96PF2)
MAPK8 (human) = MAPK8 (human) (UniProt P45983)
AKT2 (human) = AKT2 (human) (UniProt P31751)
ERBB4 (human) = ERBB4 (human) (UniProt Q15303)
SYK (human) = SYK (human) (UniProt P43405)
PRKCB2 (human) = PRKCB2 (human) (UniProt P05771)
PIM2 (human) = PIM2 (human) (UniProt Q9P1W9)
NLK (human) = NLK (human) (UniProt Q9UBE8)
DAPK2 (human) = DAPK2 (human) (UniProt Q9UIK4)
WNK3 (human) = WNK3 (human) (UniProt Q9BYP7)
MAPK12 (human) = MAPK12 (human) (UniProt P53778)
FGFR1 (human) = FGFR1 (human) (UniProt P11362)
CSNK1E (human) = CSNK1E (human) (UniProt P49674)
AURKC (human) = AURKC (human) (UniProt Q9UQB9)
MAP4K2 (human) = MAP4K2 (human) (UniProt Q12851)
FLT1 (human) = FLT1 (human) (UniProt P17948)
EPHA4 (human) = EPHA4 (human) (UniProt P54764)

Sequence of ERBB4 (human) (Q15303 whole entry, looked up): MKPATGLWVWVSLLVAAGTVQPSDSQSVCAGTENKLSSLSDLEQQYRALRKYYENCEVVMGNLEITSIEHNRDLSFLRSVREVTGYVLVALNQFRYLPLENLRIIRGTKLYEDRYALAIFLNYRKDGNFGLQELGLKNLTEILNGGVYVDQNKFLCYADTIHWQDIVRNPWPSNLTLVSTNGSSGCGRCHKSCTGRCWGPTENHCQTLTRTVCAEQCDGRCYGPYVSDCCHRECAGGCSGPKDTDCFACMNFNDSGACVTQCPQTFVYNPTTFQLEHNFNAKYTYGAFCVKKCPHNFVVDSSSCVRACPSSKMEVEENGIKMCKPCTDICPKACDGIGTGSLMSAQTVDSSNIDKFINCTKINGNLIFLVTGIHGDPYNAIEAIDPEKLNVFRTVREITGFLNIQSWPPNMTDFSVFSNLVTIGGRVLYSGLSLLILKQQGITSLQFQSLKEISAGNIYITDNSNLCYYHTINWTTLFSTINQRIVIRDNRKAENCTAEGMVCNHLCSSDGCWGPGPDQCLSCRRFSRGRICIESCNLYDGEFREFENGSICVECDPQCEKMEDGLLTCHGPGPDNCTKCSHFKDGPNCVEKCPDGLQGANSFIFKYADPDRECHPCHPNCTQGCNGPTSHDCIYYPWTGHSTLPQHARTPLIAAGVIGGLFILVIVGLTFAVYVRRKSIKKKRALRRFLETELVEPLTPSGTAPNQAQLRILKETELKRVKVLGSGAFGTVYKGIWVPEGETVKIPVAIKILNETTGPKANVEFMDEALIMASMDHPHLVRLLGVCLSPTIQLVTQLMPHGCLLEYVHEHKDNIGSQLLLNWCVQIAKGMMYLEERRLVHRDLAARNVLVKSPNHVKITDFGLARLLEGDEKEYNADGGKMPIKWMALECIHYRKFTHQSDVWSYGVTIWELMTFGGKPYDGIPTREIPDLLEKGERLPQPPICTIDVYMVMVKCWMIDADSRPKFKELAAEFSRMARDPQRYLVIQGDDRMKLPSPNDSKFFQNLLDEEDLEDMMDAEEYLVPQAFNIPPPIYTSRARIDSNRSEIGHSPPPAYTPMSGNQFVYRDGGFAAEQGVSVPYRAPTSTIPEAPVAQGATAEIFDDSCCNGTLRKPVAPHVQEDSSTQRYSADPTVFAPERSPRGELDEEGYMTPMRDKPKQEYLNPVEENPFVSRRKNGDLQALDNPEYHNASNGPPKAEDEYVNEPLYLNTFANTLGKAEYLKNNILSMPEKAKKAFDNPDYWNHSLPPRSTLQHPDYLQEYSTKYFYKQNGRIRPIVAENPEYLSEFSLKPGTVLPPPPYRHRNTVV
Sequence of CDK4 CCND3 (human) (P11802 whole entry, looked up): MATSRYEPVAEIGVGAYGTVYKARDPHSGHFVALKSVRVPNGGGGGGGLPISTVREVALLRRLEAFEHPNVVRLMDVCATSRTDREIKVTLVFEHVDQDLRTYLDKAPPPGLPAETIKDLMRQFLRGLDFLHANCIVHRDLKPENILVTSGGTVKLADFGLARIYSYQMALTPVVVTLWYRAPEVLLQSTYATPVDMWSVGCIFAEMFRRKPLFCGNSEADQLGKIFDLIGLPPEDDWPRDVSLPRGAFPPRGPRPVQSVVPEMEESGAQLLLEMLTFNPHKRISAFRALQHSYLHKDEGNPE
Sequence of CDK4 CCND3 (human) (P30281 whole entry, looked up): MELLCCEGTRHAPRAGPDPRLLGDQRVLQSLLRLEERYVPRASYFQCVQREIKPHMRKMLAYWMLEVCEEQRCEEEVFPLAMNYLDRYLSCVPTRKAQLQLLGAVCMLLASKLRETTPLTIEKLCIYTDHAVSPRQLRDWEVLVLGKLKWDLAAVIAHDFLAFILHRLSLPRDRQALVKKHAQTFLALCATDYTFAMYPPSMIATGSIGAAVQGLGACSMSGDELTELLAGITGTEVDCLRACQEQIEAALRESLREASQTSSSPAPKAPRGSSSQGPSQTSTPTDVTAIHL
Sequence of CDK4 CCND1 (human) (P11802 whole entry, looked up): as the sequence (P11802 whole entry, looked up) above
Sequence of CDK4 CCND1 (human) (P24385 whole entry, looked up): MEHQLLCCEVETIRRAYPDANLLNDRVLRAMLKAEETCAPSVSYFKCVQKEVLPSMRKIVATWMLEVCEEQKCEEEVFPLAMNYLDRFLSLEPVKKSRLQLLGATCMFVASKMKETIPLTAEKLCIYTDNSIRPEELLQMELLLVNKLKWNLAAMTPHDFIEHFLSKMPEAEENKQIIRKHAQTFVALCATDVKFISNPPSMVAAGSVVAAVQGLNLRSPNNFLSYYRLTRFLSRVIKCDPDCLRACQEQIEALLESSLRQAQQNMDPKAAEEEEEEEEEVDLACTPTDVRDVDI
Sequence of DDR2 (human) (Q16832 whole entry, looked up): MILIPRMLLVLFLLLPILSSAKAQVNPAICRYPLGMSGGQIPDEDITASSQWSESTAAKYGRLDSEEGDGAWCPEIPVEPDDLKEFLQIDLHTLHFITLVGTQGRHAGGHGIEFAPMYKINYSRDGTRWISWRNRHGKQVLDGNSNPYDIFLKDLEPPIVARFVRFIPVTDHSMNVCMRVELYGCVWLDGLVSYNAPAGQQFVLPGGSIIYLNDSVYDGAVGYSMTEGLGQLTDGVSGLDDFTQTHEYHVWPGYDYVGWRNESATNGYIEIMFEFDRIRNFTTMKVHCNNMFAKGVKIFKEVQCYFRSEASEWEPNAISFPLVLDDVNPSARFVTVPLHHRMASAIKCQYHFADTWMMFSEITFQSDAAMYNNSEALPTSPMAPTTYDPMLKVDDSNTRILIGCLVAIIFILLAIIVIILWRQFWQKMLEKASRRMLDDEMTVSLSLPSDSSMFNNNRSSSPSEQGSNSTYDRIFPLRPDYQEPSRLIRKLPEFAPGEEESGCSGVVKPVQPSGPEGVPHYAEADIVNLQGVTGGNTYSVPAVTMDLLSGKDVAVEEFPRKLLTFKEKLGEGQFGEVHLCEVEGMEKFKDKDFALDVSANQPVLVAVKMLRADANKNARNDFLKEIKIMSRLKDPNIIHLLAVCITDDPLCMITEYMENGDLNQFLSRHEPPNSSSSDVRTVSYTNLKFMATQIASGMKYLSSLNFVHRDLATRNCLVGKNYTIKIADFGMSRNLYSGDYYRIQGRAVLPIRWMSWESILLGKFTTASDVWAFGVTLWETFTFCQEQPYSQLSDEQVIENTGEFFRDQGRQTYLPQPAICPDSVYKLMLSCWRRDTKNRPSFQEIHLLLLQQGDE
Sequence of FER (human) (P16591 whole entry, looked up): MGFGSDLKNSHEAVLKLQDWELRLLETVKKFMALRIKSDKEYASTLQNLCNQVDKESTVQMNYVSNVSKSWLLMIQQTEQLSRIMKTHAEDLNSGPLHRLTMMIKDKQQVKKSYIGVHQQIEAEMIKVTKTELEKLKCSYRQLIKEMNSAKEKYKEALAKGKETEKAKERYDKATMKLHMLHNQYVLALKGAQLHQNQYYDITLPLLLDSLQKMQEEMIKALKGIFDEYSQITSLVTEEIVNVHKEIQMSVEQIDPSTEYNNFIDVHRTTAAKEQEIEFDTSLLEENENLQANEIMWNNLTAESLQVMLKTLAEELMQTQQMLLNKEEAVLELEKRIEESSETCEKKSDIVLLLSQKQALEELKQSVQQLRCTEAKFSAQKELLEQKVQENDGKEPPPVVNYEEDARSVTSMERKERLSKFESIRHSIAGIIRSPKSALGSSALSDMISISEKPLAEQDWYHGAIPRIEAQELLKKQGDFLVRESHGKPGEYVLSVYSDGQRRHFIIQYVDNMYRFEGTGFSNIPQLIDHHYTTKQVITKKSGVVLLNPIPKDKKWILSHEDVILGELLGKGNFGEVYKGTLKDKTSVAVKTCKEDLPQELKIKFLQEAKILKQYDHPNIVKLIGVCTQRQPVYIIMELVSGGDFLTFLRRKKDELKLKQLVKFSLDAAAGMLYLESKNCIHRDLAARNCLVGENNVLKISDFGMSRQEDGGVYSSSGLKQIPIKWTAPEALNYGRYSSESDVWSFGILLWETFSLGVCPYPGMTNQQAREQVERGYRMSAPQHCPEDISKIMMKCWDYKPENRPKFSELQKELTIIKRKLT
Sequence of PLK3 (human) (Q9H4B4 whole entry, looked up): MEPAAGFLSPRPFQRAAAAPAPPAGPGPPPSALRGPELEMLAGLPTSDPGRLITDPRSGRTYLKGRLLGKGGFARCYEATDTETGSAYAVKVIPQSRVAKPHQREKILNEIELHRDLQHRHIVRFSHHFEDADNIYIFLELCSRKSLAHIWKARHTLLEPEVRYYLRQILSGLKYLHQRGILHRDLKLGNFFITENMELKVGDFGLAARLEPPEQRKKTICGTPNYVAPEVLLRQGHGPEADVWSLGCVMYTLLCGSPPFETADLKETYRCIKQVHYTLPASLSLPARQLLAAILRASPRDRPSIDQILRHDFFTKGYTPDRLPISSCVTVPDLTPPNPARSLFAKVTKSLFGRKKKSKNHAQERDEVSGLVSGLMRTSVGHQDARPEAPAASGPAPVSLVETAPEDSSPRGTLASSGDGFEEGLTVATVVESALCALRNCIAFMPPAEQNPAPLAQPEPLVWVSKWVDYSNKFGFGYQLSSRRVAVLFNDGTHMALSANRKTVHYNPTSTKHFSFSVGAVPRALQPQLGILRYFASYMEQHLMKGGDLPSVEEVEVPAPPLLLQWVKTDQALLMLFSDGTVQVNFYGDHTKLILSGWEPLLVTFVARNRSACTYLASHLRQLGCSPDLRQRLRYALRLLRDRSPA
Sequence of AKT2 (human) (P31751 whole entry, looked up): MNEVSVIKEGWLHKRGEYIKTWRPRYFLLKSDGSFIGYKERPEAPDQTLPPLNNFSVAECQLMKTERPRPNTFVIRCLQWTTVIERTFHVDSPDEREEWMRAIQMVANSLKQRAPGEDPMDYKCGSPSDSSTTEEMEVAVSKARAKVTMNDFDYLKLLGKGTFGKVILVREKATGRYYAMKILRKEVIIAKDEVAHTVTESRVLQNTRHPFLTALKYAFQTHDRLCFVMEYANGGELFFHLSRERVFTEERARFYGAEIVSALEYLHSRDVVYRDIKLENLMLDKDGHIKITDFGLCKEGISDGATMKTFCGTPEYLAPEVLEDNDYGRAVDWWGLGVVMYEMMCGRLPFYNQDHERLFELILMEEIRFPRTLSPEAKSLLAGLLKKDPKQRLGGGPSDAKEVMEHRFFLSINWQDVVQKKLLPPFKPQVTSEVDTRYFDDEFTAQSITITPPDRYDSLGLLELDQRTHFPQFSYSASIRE

Q: `CN[C@@H]1C[C@H]2O[C@@](C)([C@@H]1OC)n1c3ccccc3c3c4c(c5c6ccccc6n2c5c31)C(=O)NC4` was tested. Which residual activity (MST4 (human)) did it give?
A: The residual activity was 4.43%.

Q: And the residual activity (FER (human))?
A: Its residual activity is 0.816%.

Q: What about the residual activity (SRC (human)) of the same compound?
A: Its residual activity is 1.46%.

Q: What about the residual activity (PDGFRB (human)) of the same compound?
A: The residual activity was 2.28%.

Q: And the residual activity (GRK7 (human))?
A: Its residual activity is 0.737%.

Q: What about the residual activity (RPS6KA5 KD2 (human)) of the same compound?
A: Its residual activity is 1.24%.

Q: What about the residual activity (RPS6KA4 KD2 (human)) of the same compound?
A: Its residual activity is 6.74%.

Q: `COc1cc2c(Nc3ccc(Br)cc3F)ncnc2cc1OCC1CCN(C)CC1` was tested. Which residual activity (CDK6 CCND1 (human)) did it give?
A: Its residual activity is 98.7%.

Q: And the residual activity (MST4 (human))?
A: Its residual activity is 102%.

Q: What about the residual activity (FER (human)) of the same compound?
A: Its residual activity is 95.8%.

Q: What about the residual activity (MAPKAPK3 (human)) of the same compound?
A: The residual activity was 98.5%.

Q: What about the residual activity (CLK3 (human)) of the same compound?
A: Its residual activity is 100%.

Q: And the residual activity (LIMK1 (human))?
A: Its residual activity is 88.1%.

Q: And the residual activity (SRC (human))?
A: The residual activity was 11%.

Q: What about the residual activity (PRKCZ (human)) of the same compound?
A: Its residual activity is 97.8%.

Q: What about the residual activity (ACVR1 (human)) of the same compound?
A: Its residual activity is 208%.

Q: And the residual activity (MAP3K7 TAB1 (human))?
A: The residual activity was 93.9%.

Q: And the residual activity (CDC42BPB (human))?
A: The residual activity was 98%.

Q: And the residual activity (TYRO3 (human))?
A: Its residual activity is 33%.

Q: What about the residual activity (TTK (human)) of the same compound?
A: The residual activity was 95.1%.

Q: What about the residual activity (CDK4 CCND3 (human)) of the same compound?
A: The residual activity was 101%.

Q: And the residual activity (CDK4 CCND1 (human))?
A: The residual activity was 94.8%.

Q: What about the residual activity (PLK3 (human)) of the same compound?
A: The residual activity was 95%.

Q: What about the residual activity (WNK2 (human)) of the same compound?
A: The residual activity was 100%.

Q: What about the residual activity (PKN2 (human)) of the same compound?
A: The residual activity was 99.7%.

Q: What about the residual activity (DDR2 (human)) of the same compound?
A: The residual activity was 68%.

Q: And the residual activity (MAPK13 (human))?
A: Its residual activity is 95.5%.

Q: And the residual activity (LRRK2 (human))?
A: The residual activity was 113%.

Q: And the residual activity (TSSK2 (human))?
A: The residual activity was 95.9%.

Q: And the residual activity (MAPK8 (human))?
A: The residual activity was 93.7%.

Q: And the residual activity (AKT2 (human))?
A: The residual activity was 110%.

Q: What about the residual activity (ERBB4 (human)) of the same compound?
A: The residual activity was 45.6%.

Q: What about the residual activity (SYK (human)) of the same compound?
A: The residual activity was 101%.

Q: What about the residual activity (PRKCB2 (human)) of the same compound?
A: Its residual activity is 91.6%.

Q: And the residual activity (GRK7 (human))?
A: Its residual activity is 96.4%.

Q: What about the residual activity (PIM2 (human)) of the same compound?
A: The residual activity was 99.4%.

Q: What about the residual activity (RPS6KA5 KD2 (human)) of the same compound?
A: The residual activity was 101%.

Q: And the residual activity (NLK (human))?
A: Its residual activity is 96.2%.

Q: What about the residual activity (DAPK2 (human)) of the same compound?
A: Its residual activity is 93.3%.

Q: And the residual activity (WNK3 (human))?
A: Its residual activity is 98%.

Q: And the residual activity (RPS6KA4 KD2 (human))?
A: Its residual activity is 110%.

Q: And the residual activity (MAPK12 (human))?
A: The residual activity was 92.6%.

Q: Which results are given for `CCCCc1c(-c2ccc(O)cc2)[nH]c2nccnc12`?
A: residual activity (CDK6 CCND1 (human)): 61.6%; residual activity (MST4 (human)): 79.1%; residual activity (FER (human)): 55.6%; residual activity (MAPKAPK3 (human)): 92.8%; residual activity (CLK3 (human)): 121%; residual activity (LIMK1 (human)): 64.3%; residual activity (SRC (human)): 65.2%; residual activity (PRKCZ (human)): 97.4%; residual activity (ACVR1 (human)): 83.8%; residual activity (MAP3K7 TAB1 (human)): 80.3%; residual activity (FGFR1 (human)): 81.8%; residual activity (TYRO3 (human)): 99.6%; residual activity (TTK (human)): 91.6%; residual activity (CDK4 CCND3 (human)): 71%; residual activity (CSNK1E (human)): 102%; residual activity (CDK4 CCND1 (human)): 66.4%; residual activity (AURKC (human)): 44.9%; residual activity (PLK3 (human)): 90.6%; residual activity (WNK2 (human)): 117%; residual activity (PKN2 (human)): 82.4%; residual activity (DDR2 (human)): 96%; residual activity (MAPK13 (human)): 101%; residual activity (LRRK2 (human)): 80%; residual activity (TSSK2 (human)): 96.7%; residual activity (MAPK8 (human)): 81.9%; residual activity (MAP4K2 (human)): 28.2%; residual activity (AKT2 (human)): 95.3%; residual activity (ERBB4 (human)): 102%; residual activity (PDGFRB (human)): 91.4%; residual activity (SYK (human)): 53.5%; residual activity (PRKCB2 (human)): 118%; residual activity (GRK7 (human)): 82.4%; residual activity (PIM2 (human)): 121%; residual activity (RPS6KA5 KD2 (human)): 101%; residual activity (NLK (human)): 90.3%; residual activity (DAPK2 (human)): 101%; residual activity (WNK3 (human)): 90.3%; residual activity (RPS6KA4 KD2 (human)): 87.5%; residual activity (FLT1 (human)): 86.3%; residual activity (EPHA4 (human)): 87.5%

Q: `O=S(=O)(NCCNC/C=C/c1ccc(Br)cc1)c1cccc2cnccc12` was tested. Which residual activity (CDK6 CCND1 (human)) did it give?
A: Its residual activity is 77.9%.

Q: What about the residual activity (MST4 (human)) of the same compound?
A: Its residual activity is 94.8%.

Q: And the residual activity (FER (human))?
A: Its residual activity is 97.6%.

Q: And the residual activity (MAPKAPK3 (human))?
A: The residual activity was 97.8%.

Q: And the residual activity (CLK3 (human))?
A: The residual activity was 87.6%.

Q: What about the residual activity (LIMK1 (human)) of the same compound?
A: Its residual activity is 90.6%.

Q: What about the residual activity (SRC (human)) of the same compound?
A: The residual activity was 90.1%.

Q: What about the residual activity (PRKCZ (human)) of the same compound?
A: Its residual activity is 79.8%.

Q: What about the residual activity (ACVR1 (human)) of the same compound?
A: The residual activity was 96.4%.

Q: And the residual activity (MAP3K7 TAB1 (human))?
A: The residual activity was 109%.

Q: And the residual activity (CDC42BPB (human))?
A: The residual activity was 99.5%.

Q: What about the residual activity (FGFR1 (human)) of the same compound?
A: Its residual activity is 87.6%.

Q: And the residual activity (TYRO3 (human))?
A: The residual activity was 93.9%.

Q: And the residual activity (TTK (human))?
A: Its residual activity is 99.7%.

Q: What about the residual activity (CDK4 CCND3 (human)) of the same compound?
A: The residual activity was 106%.

Q: What about the residual activity (CSNK1E (human)) of the same compound?
A: The residual activity was 107%.

Q: And the residual activity (CDK4 CCND1 (human))?
A: Its residual activity is 93.9%.

Q: What about the residual activity (AURKC (human)) of the same compound?
A: The residual activity was 89%.

Q: What about the residual activity (PLK3 (human)) of the same compound?
A: Its residual activity is 98.2%.

Q: What about the residual activity (WNK2 (human)) of the same compound?
A: Its residual activity is 99.4%.

Q: What about the residual activity (PKN2 (human)) of the same compound?
A: Its residual activity is 78.9%.

Q: What about the residual activity (DDR2 (human)) of the same compound?
A: The residual activity was 93.8%.

Q: And the residual activity (MAPK13 (human))?
A: Its residual activity is 101%.

Q: What about the residual activity (LRRK2 (human)) of the same compound?
A: The residual activity was 86.2%.

Q: What about the residual activity (TSSK2 (human)) of the same compound?
A: Its residual activity is 104%.

Q: And the residual activity (MAPK8 (human))?
A: The residual activity was 92.7%.

Q: And the residual activity (MAP4K2 (human))?
A: Its residual activity is 51.1%.

Q: And the residual activity (AKT2 (human))?
A: The residual activity was 75.4%.

Q: What about the residual activity (ERBB4 (human)) of the same compound?
A: Its residual activity is 94.2%.

Q: What about the residual activity (PDGFRB (human)) of the same compound?
A: The residual activity was 112%.

Q: What about the residual activity (SYK (human)) of the same compound?
A: Its residual activity is 77.7%.

Q: What about the residual activity (PRKCB2 (human)) of the same compound?
A: Its residual activity is 90.2%.

Q: What about the residual activity (PIM2 (human)) of the same compound?
A: The residual activity was 104%.

Q: And the residual activity (RPS6KA5 KD2 (human))?
A: Its residual activity is 39.4%.

Q: And the residual activity (NLK (human))?
A: The residual activity was 94.9%.

Q: And the residual activity (DAPK2 (human))?
A: The residual activity was 72.1%.

Q: And the residual activity (WNK3 (human))?
A: Its residual activity is 93.1%.

Q: And the residual activity (RPS6KA4 KD2 (human))?
A: Its residual activity is 38.8%.

Q: What about the residual activity (FLT1 (human)) of the same compound?
A: Its residual activity is 90.8%.

Q: And the residual activity (EPHA4 (human))?
A: Its residual activity is 86.8%.
